In ChEMBL document CHEMBL1201862, “PubChem BioAssay data set” (2004):
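Step 1: Grow cells in 96-well plates. Step 2: Expose to compound for 48 hours at 5 concentrations. Step 3: Interpolate endpoints linearly; if unreached, use highest concentration. At the GI50, growth is halved.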 Active and inactive are the calls of the source. Cut-off read from the data, not from the text of the source: active = GI50 up to about 1.1 µM and inactive = higher.

Key:
Assay in all cases: inhibition of tumour cell growth, NCI panel, 48 h
SN12C = test system: SN12C
SK-MEL-5 = test system: SK-MEL-5
SNB-19 = test system: SNB-19
OVCAR-4 = test system: OVCAR-4
BT-549 = test system: BT-549
SNB-75 = test system: SNB-75
MDA-MB-435 = test system: MDA-MB-435
HT-29 = test system: HT-29
UO-31 = test system: UO-31
786-0 = test system: 786-0
HL-60 = test system: HL-60
MOLT-4 = test system: MOLT-4
RXF 393 = test system: RXF 393
MDA-MB-231 = test system: MDA-MB-231
SF-268 = test system: SF-268
EKVX = test system: EKVX
Malme-3M = test system: Malme-3M
M14 = test system: M14
HOP-62 = test system: HOP-62
OVCAR-5 = test system: OVCAR-5
NCI-H23 = test system: NCI-H23
DU-145 = test system: DU-145
SW-620 = test system: SW-620
MCF7 = test system: MCF7
U-251 = test system: U-251
SK-MEL-2 = test system: SK-MEL-2
CCRF-CEM = test system: CCRF-CEM
COLO 205 = test system: COLO 205
A498 = test system: A498
NCI/ADR-RES = test system: NCI/ADR-RES
OVCAR-3 = test system: OVCAR-3
UACC-257 = test system: UACC-257
HCT-116 = test system: HCT-116
CAKI-1 = test system: CAKI-1
TK-10 = test system: TK-10
KM12 = test system: KM12
K562 = test system: K562
NCI-H522 = test system: NCI-H522
HCC 2998 = test system: HCC 2998
SK-MEL-28 = test system: SK-MEL-28
HOP-92 = test system: HOP-92
NCI-H460 = test system: NCI-H460
IGROV-1 = test system: IGROV-1
NCI-H226 = test system: NCI-H226
SR = test system: SR
LOX IMVI = test system: LOX IMVI
ACHN = test system: ACHN
A549 = test system: A549
SF-295 = test system: SF-295
RPMI-8226 = test system: RPMI-8226
UACC-62 = test system: UACC-62
OVCAR-8 = test system: OVCAR-8
T47D = test system: T47D
PC-3 = test system: PC-3
SF-539 = test system: SF-539
SK-OV-3 = test system: SK-OV-3
MDA-N = test system: MDA-N
HCT-15 = test system: HCT-15

For `CC1=C(C#N)C23C(=O)c4ccccc4C(=O)C2=C(O)C=CC3(O)N1` (stereo not given), the GI50 (SN12C) was 2.24 µM (inactive), the GI50 (SK-MEL-5) was 1.06 µM (active) and the GI50 (SNB-19) was 4.33 µM (inactive). The GI50 (OVCAR-4) was 1.97 µM (inactive), the GI50 (BT-549) was 1.13 µM (inactive) and the GI50 (SNB-75) was 2.3 µM (inactive). For the same molecule, the GI50 (MDA-MB-435) was 2.81 µM (inactive), the GI50 (HT-29) was 1.23 µM (inactive) and the GI50 (UO-31) was 2.37 µM (inactive). The GI50 (786-0) was 2.2 µM (inactive), the GI50 (HL-60) was 0.313 µM (active) and the GI50 (MOLT-4) was 0.484 µM (active). For the same molecule, the GI50 (RXF 393) was 3.8 µM (inactive), the GI50 (MDA-MB-231) was 8.83 µM (inactive) and the GI50 (SF-268) was 6.61 µM (inactive). For the same molecule, the GI50 (EKVX) was 5.82 µM (inactive), the GI50 (Malme-3M) was 1.78 µM (inactive) and the GI50 (M14) was 2.19 µM (inactive). The GI50 (HOP-62) was 5.4 µM (inactive), the GI50 (OVCAR-5) was 4.76 µM (inactive) and the GI50 (NCI-H23) was 3.84 µM (inactive). For the same molecule, the GI50 (DU-145) was 2.98 µM (inactive), the GI50 (SW-620) was 0.553 µM (active) and the GI50 (MCF7) was 0.597 µM (active). The GI50 (U-251) was 8.39 µM (inactive), the GI50 (SK-MEL-2) was 4.4 µM (inactive) and the GI50 (CCRF-CEM) was 0.365 µM (active). The GI50 (COLO 205) was 2.03 µM (inactive), the GI50 (A498) was 21 µM (inactive) and the GI50 (NCI/ADR-RES) was 7.83 µM (inactive). For the same molecule, the GI50 (OVCAR-3) was 0.861 µM (active), the GI50 (UACC-257) was 2.07 µM (inactive) and the GI50 (HCT-116) was 5.68 µM (inactive). The GI50 (CAKI-1) was 4.06 µM (inactive), the GI50 (TK-10) was 14.3 µM (inactive) and the GI50 (KM12) was 9.08 µM (inactive). For the same molecule, the GI50 (K562) was 1.15 µM (inactive), the GI50 (NCI-H522) was 1.48 µM (inactive) and the GI50 (HCC 2998) was 4.02 µM (inactive). For the same molecule, the GI50 (SK-MEL-28) was 2.51 µM (inactive), the GI50 (HOP-92) was 2.12 µM (inactive) and the GI50 (NCI-H460) was 5.46 µM (inactive). The GI50 (IGROV-1) was 2.38 µM (inactive), the GI50 (NCI-H226) was 15.7 µM (inactive) and the GI50 (SR) was 0.269 µM (active). The GI50 (LOX IMVI) was 0.512 µM (active), the GI50 (ACHN) was 1.53 µM (inactive) and the GI50 (A549) was 1.67 µM (inactive). For the same molecule, the GI50 (SF-295) was 13.6 µM (inactive), the GI50 (RPMI-8226) was 0.658 µM (active) and the GI50 (UACC-62) was 2.52 µM (inactive). For the same molecule, the GI50 (OVCAR-8) was 5.09 µM (inactive), the GI50 (T47D) was 7.4 µM (inactive) and the GI50 (PC-3) was 4.57 µM (inactive). The GI50 (SF-539) was 2.86 µM (inactive), the GI50 (SK-OV-3) was 52 µM (inactive) and the GI50 (MDA-N) was 1.53 µM (inactive). It also gave a GI50 (HCT-15) of 2.44 µM.

In the case of `COc1ccc(C2=Nc3c(nc(SC)[nH]c3=O)NC(c3ccccc3)C2)cc1` (stereo not given), the GI50 (SN12C) is reported as 20.9 µM (inactive), the GI50 (SK-MEL-5) is reported as 16.6 µM (inactive) and the GI50 (SNB-19) is reported as 23.8 µM (inactive). The GI50 (BT-549) was 24.8 µM (inactive), the GI50 (SNB-75) was 17.8 µM (inactive) and the GI50 (MDA-MB-435) was 29.2 µM (inactive). For the same molecule, the GI50 (HT-29) was 21.8 µM (inactive), the GI50 (UO-31) was 20.8 µM (inactive) and the GI50 (786-0) was 26.3 µM (inactive). The GI50 (HL-60) was 18.1 µM (inactive), the GI50 (MOLT-4) was 18.7 µM (inactive) and the GI50 (RXF 393) was 20.7 µM (inactive). For the same molecule, the GI50 (MDA-MB-231) was 14.3 µM (inactive), the GI50 (EKVX) was 24.4 µM (inactive) and the GI50 (Malme-3M) was 37.1 µM (inactive). The GI50 (M14) was 25.4 µM (inactive), the GI50 (HOP-62) was 35.4 µM (inactive) and the GI50 (OVCAR-5) was 34.5 µM (inactive). The GI50 (NCI-H23) was 20.6 µM (inactive), the GI50 (DU-145) was 25.2 µM (inactive) and the GI50 (SW-620) was 44.9 µM (inactive). For the same molecule, the GI50 (MCF7) was 17.1 µM (inactive), the GI50 (U-251) was 18.9 µM (inactive) and the GI50 (SK-MEL-2) was 29.1 µM (inactive). For the same molecule, the GI50 (CCRF-CEM) was 29 µM (inactive), the GI50 (COLO 205) was 19.6 µM (inactive) and the GI50 (A498) was 33.3 µM (inactive). The GI50 (NCI/ADR-RES) was 20 µM (inactive), the GI50 (OVCAR-3) was 27.5 µM (inactive) and the GI50 (UACC-257) was 22.9 µM (inactive). For the same molecule, the GI50 (HCT-116) was 30.9 µM (inactive), the GI50 (CAKI-1) was 17.1 µM (inactive) and the GI50 (KM12) was 16.6 µM (inactive). The GI50 (K562) was 25.1 µM (inactive), the GI50 (NCI-H522) was 17.1 µM (inactive) and the GI50 (SK-MEL-28) was > 10 µM (inactive). The GI50 (HOP-92) was 46.3 µM (inactive), the GI50 (IGROV-1) was 19.5 µM (inactive) and the GI50 (NCI-H226) was 26.2 µM (inactive). The GI50 (SR) was 73.3 µM (inactive), the GI50 (LOX IMVI) was 30.5 µM (inactive) and the GI50 (ACHN) was 21.8 µM (inactive). For the same molecule, the GI50 (A549) was 24 µM (inactive), the GI50 (SF-295) was 27.4 µM (inactive) and the GI50 (RPMI-8226) was 27.2 µM (inactive). For the same molecule, the GI50 (UACC-62) was > 10 µM (inactive), the GI50 (OVCAR-8) was 19.4 µM (inactive) and the GI50 (PC-3) was 33.7 µM (inactive). The GI50 (SF-539) was 19.4 µM (inactive), the GI50 (SK-OV-3) was 18.1 µM (inactive) and the GI50 (MDA-N) was 16.9 µM (inactive).

For `COc1ccc(/C=N/n2c(Cc3ccc(Cl)cc3)n[nH]c2=O)cc1`, the GI50 (SN12C) was 59.7 µM (inactive), the GI50 (SNB-19) was 15.7 µM (inactive) and the GI50 (OVCAR-4) was > 100 µM (inactive). The GI50 (BT-549) was 32.4 µM (inactive), the GI50 (SNB-75) was 16.6 µM (inactive) and the GI50 (MDA-MB-435) was > 100 µM (inactive). The GI50 (HT-29) was 13.6 µM (inactive), the GI50 (UO-31) was > 100 µM (inactive) and the GI50 (786-0) was 17.7 µM (inactive). The GI50 (MOLT-4) was > 100 µM (inactive), the GI50 (RXF 393) was 16.8 µM (inactive) and the GI50 (MDA-MB-231) was 8.93 µM (inactive). For the same molecule, the GI50 (EKVX) was 30.1 µM (inactive), the GI50 (M14) was 45.7 µM (inactive) and the GI50 (HOP-62) was 15.2 µM (inactive). The GI50 (OVCAR-5) was 29.5 µM (inactive), the GI50 (NCI-H23) was 22 µM (inactive) and the GI50 (DU-145) was 30.3 µM (inactive). The GI50 (SW-620) was > 100 µM (inactive), the GI50 (MCF7) was 77.8 µM (inactive) and the GI50 (U-251) was 14.3 µM (inactive). The GI50 (SK-MEL-2) was 21.6 µM (inactive), the GI50 (CCRF-CEM) was > 100 µM (inactive) and the GI50 (COLO 205) was 32 µM (inactive). For the same molecule, the GI50 (A498) was 39.3 µM (inactive), the GI50 (NCI/ADR-RES) was 32.8 µM (inactive) and the GI50 (OVCAR-3) was > 100 µM (inactive). For the same molecule, the GI50 (UACC-257) was > 100 µM (inactive), the GI50 (HCT-116) was 24.9 µM (inactive) and the GI50 (CAKI-1) was 30.8 µM (inactive). For the same molecule, the GI50 (KM12) was > 100 µM (inactive), the GI50 (K562) was > 100 µM (inactive) and the GI50 (HCC 2998) was > 100 µM (inactive). The GI50 (SK-MEL-28) was > 100 µM (inactive), the GI50 (HOP-92) was 17.3 µM (inactive) and the GI50 (NCI-H460) was > 100 µM (inactive). The GI50 (IGROV-1) was 16 µM (inactive), the GI50 (NCI-H226) was 36.2 µM (inactive) and the GI50 (SR) was 37.3 µM (inactive). For the same molecule, the GI50 (ACHN) was 45.1 µM (inactive), the GI50 (A549) was 43.6 µM (inactive) and the GI50 (SF-295) was 19.8 µM (inactive). For the same molecule, the GI50 (RPMI-8226) was > 100 µM (inactive), the GI50 (UACC-62) was 52.2 µM (inactive) and the GI50 (OVCAR-8) was 16.7 µM (inactive). For the same molecule, the GI50 (T47D) was 54.1 µM (inactive), the GI50 (PC-3) was 92.5 µM (inactive) and the GI50 (SF-539) was 22.1 µM (inactive). The GI50 (SK-OV-3) was 36 µM (inactive), the GI50 (MDA-N) was > 100 µM (inactive) and the GI50 (HCT-15) was 38 µM.
